Legend:
T47D μOTOCs = assay: 18F-FDG uptake in μOTOCs by Cerenkov Luminescence Imaging, T47D; type: cell-based; conditions: 250 μM, 24 hrs, CLI
Protocol: (§1) Cobalt chloride (CoCl2) is known to cause an increase in 18F-FDG uptake in cells treated /over 24 hours. As such, 250 μM CoCl2 was used to test whether μTOCs could be imaged.
(§2) μOTOCs of H1048 (small cell lung carcinoma) and T47D (mammary gland; ductal carcinoma) cells were generated using the method described in Example 1.
(§3) On Day 3 post seeding/creation of the OTOCs (i.e, after forming the μOTOCs in oil then transferring to T75 flask for 3 days of culture), the μOTOCs were transferred one at a time via pipette into a 96 well plate (1 μOTOC/well). 250 μM CoCl2 was added to each well. Cerenkov Luminescence Imaging was used to monitor the FDG response in vitro.

H1048 μOTOCs = assay: 18F-FDG uptake in μOTOCs by Cerenkov Luminescence Imaging, H1048; type: cell-based; conditions: 250 μM, 24 hrs, CLI
Protocol: as §1, §2, §3

HT-29 (KRAS WT) = assay: In vivo response of HT-29 (t/c); conditions: HT-29 in vivo
HT-29 OTOCs = assay: 18F-FDG uptake in OTOCs by Cerenkov Luminescence Imaging, HT-29; type: cell-based; conditions: 700 ng/ml, 24 hr time point, CLI
Text: (§4) The objective of this study was to monitor radio-labeled compound uptake in vitro using the OTOC system described herein. Three tumor cell lines (HT-29 (colon tumor cell line), HCT-116 (colon tumor cell line), and H460 (lung tumor cell line) were used to generate OTOCs in order to test the effects of FDG uptake after drug treatment with MLN9708, a proteasome inhibitor. OTOCs for each cell line were transferred to 6 well plates, respectively, with 6 OTOCs/well.
(§5) An in vitro dosage of MLN9708 was extrapolated from historical in vivo PK studies for this compound. A 700 ng/ml concentration was decided upon and used in the OTOC studies described herein (derived from the mean tumor concentration achievable with a standard dose of MLN9708 (11 mg/kg PK dose, IV)).
(§6) The imaging modality Cerenkov Luminescence Imaging (CLI, Robertson et al. (2009) Phys. Med. Biol. 54:N355-N365) was used to monitor the FDG response in vitro.
(§7) The cell line HT-29 (KRAS WT) is known to be responsive to MLN9708 in vivo (t/c <0.3), while HCT-116 and H460 (both KRAS mutants) have shown resistance to proteasome inhibition (data not shown). OTOCs were imaged via CLI at 24, 48, 72, 96 hours post compound administration.

HCT-116 OTOCs = assay: 18F-FDG uptake in OTOCs by Cerenkov Luminescence Imaging, HCT-116; type: cell-based; conditions: 700 ng/ml, 24 hr time point, CLI
Text: as §4, §5, §6, §7

H460 OTOCs = assay: 18F-FDG uptake in OTOCs by Cerenkov Luminescence Imaging, H460; type: cell-based; conditions: 700 ng/ml, 24 hr time point, CLI
Text: as §4, §5, §6, §7

HCT-116 spheroids = assay: InSphero assay (hanging drop spheroids), HCT-116; conditions: Homo sapiens
Text: This experiment that was undertaken was to determine if there was an increase in the resistance of known drug in comparison of the spheroid culture to OTOC format. The same conditions that were use in the previous InSphero experiment (in regards to dose and timing) were used in this experiment.

[1] = tested on: HCT-116 (HCT-116-Luc) OTOCs; conditions: repeated experiment, newly generated HCT-116 OTOCs and InSphero spheroids
Protocol: 24 OTOCs were removed and placed in a 6-well plate, 4 OTOCs/well on day 3 post OTOC seeding/creation.
At 4 days post drug administration all OTOC's were collected for viability measurement to look at growth kinetics and drug resistance to STP.
Each OTOC was placed in a glass test tube with several glass beads. Approximately 800 of PBS was added to test tube and the tube was vortexed for 2-3 min to disrupt the OTOC. After vortexing each test tube was placed on ice until sampling. A black 96 well plate was used for the samples. For each lane 100 μl of the OTOC solution was placed in each well (8 wells/800 (total)/OTOC) until all OTOCs samples were completed. 100 μl of Celltiter glow was added to each well and the plates were rested for 10 min before reading. IVIS Spectrum was run on Auto exposure for each plate and the Living Image analysis program was used to determine Radiance/per well. Lanes were added up and group average and error was determined.
The same conditions that were use in the previous InSphero experiment (in regards to dose and timing) were used in this experiment.

SMILES: [Cl][Co][Cl] [CoCl2, Cobalt chloride]
- increase in FDG uptake (T47D μOTOCs): 33.7%
- increase in 18F-FDG uptake (H1048 μOTOCs): 22.6%

SMILES: CC(C)C[C@H](NC(=O)CNC(=O)c1cc(Cl)ccc1Cl)B1OC(=O)C(CC(=O)O)(CC(=O)O)O1 [MLN9708]
- t/c (HT-29 (KRAS WT)): < 0.3
- increased FDG uptake (HT-29 OTOCs): 48%
- FDG uptake response (HCT-116 OTOCs): < 10%
- FDG signal change from control (H460 OTOCs): -10%

SMILES: CN[C@@H]1C[C@H]2O[C@@](C)([C@@H]1OC)n1c3ccccc3c3c4c(c5c6ccccc6n2c5c31)C(=O)NC4 [Staurosporine]
- IC50 (HCT-116 spheroids): 37 nM
- greater resistance in OTOCs assay as compared to InSphero assay [1]: 1800 ×

— US20160123960A1, “METHOD FOR PREPARING THREE-DIMENSIONAL, ORGANOTYPIC CELL CULTURES AND USES THEREOF” (priority 2013, published 2016)
